For assay [1], the system named is patients with moderate to severe COPD. Briefly: Clinical study in COPD: moderate/severe COPD exacerbations (rate ratio, time to first exacerbation). The format is in vivo, human. The source says: A COPD exacerbation may be a moderate COPD exacerbation or a severe COPD exacerbation. A moderate exacerbation is defined as worsening symptoms of COPD (as defined hereinabove) requiring a minimum of three days of treatment with oral/systemic corticosteroids and/or antibiotics. A severe exacerbation is defined as worsening symptoms of COPD (as defined hereinabove) requiring in-patient hospitalization. In some embodiments, the pharmaceutical compositions provided herein reduce the severity of COPD exacerbations in a patient, and may be used in preventing severe COPD exacerbations in a subject. In some embodiments, pharmaceutical compositions reduce the severity of COPD exacerbations. In some embodiments, […]
Ensifentrine's ability to reduce the frequency and or severity of COPD exacerbations was studied in 1,549 subjects. Ensifentrine's ability to reduce the frequency and or severity of COPD exacerbations was assessed in various subgroup populations. In one part of the study, subjects were assessed based on whether they were diagnosed with mild or moderate COPD or severe or very severe COPD. […]
These subjects were also assessed for the time to first moderate/severe COPD exacerbation, as measured by a hazard ratio from a Cox model. […]

The test system is the same in assay [2]. The experiment in a line: Clinical study in COPD: dyspnea by transition dyspnea index (TDI) in subjects using LABA + ICS. The assay is classed as in vivo, human. As to the method: A clinical study was conducted to determine the efficacy of ensifentrine in treating COPD compared with placebo. Ensifentrine was administered by nebulizer at a dose of 3 mg twice daily (BID) for 24 weeks. The study was a multicenter, randomized, double-blind, parallel group, placebo-controlled trial with around 800 patients and 5:3 randomization.
The study population included patients aged 40-80 years with moderate to severe COPD (FEV1 30%-70% p.n., FEV1/forced vital capacity (FVC) ratio<0.7, with mMRC≥2). The randomization stratified (a) the use of stable background maintenance LAMA or LABA therapy use (approx. 50% yes or no) and (b) cigarette smoking (current or former). Inhaled corticosteroid (ICS) maintenance therapy was permitted in up to 20% of patients under certain provisions.
Ensifentrine was studied for its ability to treat COPD in subjects using inhalable corticosteroids (ICS) while also using a LABA.

Take `COc1cc2c(cc1OC)-c1c/c(=N\c3c(C)cc(C)cc3C)n(CCNC(N)=O)c(=O)n1CC2` [Ensifentrine, N-(2-{(2E)-9,10-dimethoxy-4-oxo-2-[(2,4,6-trimethylphenyl)imino]-6,7-dihydro-2H-pyrimido[6,1-a]isoquinolin-3(4H)-yl}ethyl)urea]: the Reductions in exacerbations entry in assay [1] (subjects with baseline blood eosinophil concentrations of greater than 150 cells/μL) and in assay [1] (subjects with baseline blood eosinophil concentrations of less than or equal to 150 cells/μL) was “Reductions in exacerbations were observed” throughout. The “Transition Dyspnea Index, LS Mean” value in assay [2] (COPD medication LABA + ICS) is reported as 1.394 (0.4748). Moreover, the “Transition Dyspnea Index, Estimate (Ensi-Pla)” value in assay [2] (COPD medication LABA + ICS, difference ensifentrine minus placebo) is 0.768. For the same compound, the “Dyspnea compared to placebo” value in assay [2] (subjects taking LABA and ICS) is “exhibited improvements in dyspnea”.

The record behind these values is patent publication US20250249008A1, “PHARMACEUTICAL COMPOSITIONS OF ENSIFENTRINE FOR CHRONIC OBSTRUCTIVE PULMONARY DISEASE” (Verona Pharma PLC, priority 2024, published 2025).
